Measured values published in patent US10407467B2, “Polymyxin derivatives and their use in combination therapy together with different antibiotics” (priority 2013, dated 2019).
Bridge positions count the residues as written; N and C are the ends. Square brackets hold non-standard residues; d marks the D form. Peptide text beside a SMILES is read from it. * marks the point of attachment. ξ: configuration not given here. ξβ3hGly(cHex) = NC(CC(=O)*)C1CCCCC1; Thr(3ξ) = CC(O)[C@H](N)C(=O)O; Dab = NCC[C@H](N)C(=O)O

Tests used:
Escherichia coli = test: MIC, sole activity (no second agent); type: cell-based
In short: (§1)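 First, isolated colonies grown 18-24 hours on Mueller-Hinton agar were suspended to 0.5 McFarland; next, up to four strains per pathogen were tested in duplicate in cation-adjusted MHB; finally, the lower concordant value or modal repeat value was reported against Polymyxin B.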

Pseudomonas aeruginosa = test: MIC, sole activity (no second agent); type: cell-based
In short: as §1

Acinetobacter baumannii = test: MIC, sole activity (no second agent); type: cell-based
In short: as §1

Klebsiella pneumoniae = test: MIC, sole activity (no second agent); type: cell-based
In short: as §1

[1] = test system: Escherichia coli isolate ATCC25922; settings: 10 mg/kg/day (5 mg/kg BID subcutaneous), neutropenic CD-1 mice, 24 h post-infection
Procedure: At 1 h, the CFU count was determined from 5 mice and the remaining mice (five per group) were treated with a subcutaneous injection of the drug at +1 and 6 hr post-infection.
Twenty-four hours after infection, the mice were euthanized humanely. The muscle of the right thigh of each animal was harvested, homogenized, serially diluted and plated on Brain Heart Infusion agar+0.5% charcoal (w/v) for CFU determination. Decrease of the total CFU of right thigh as compared to control counts at 24 h post-infection was determined for each dose group.

[2] = Second Agent none (Table 7B, by row order)

## CC(C)C[C@@H]1NC(=O)[C@@H](Cc2ccccc2)NC(=O)[C@H](CCN)NC(=O)[C@@H](NC(=O)[C@H](CCN)NC(=O)[C@@H](NC(=O)CC(N)C2CCCCC2)C(C)O)CCNC(=O)[C@H](C(C)O)NC(=O)[C@H](CCN)NC(=O)[C@H](CCN)NC1=O (stereo partly drawn) [Example 10, [3(R,S)-3-Amino-3-cyclohexane-propanoyl]Polymyxin B nonapeptide] ({ξβ3hGly(cHex)}-[Thr(3ξ)][Dab][Dab][Dab][dF]L[Dab][Dab][Thr(3ξ)]; lactam 3-C)
Escherichia coli; E. coli NCTC9001, second agent none
  MIC E. coli NCTC9001: 4 micrograms/mL
Escherichia coli; Second Agent none (Table 7A)
  MIC E. coli NCTC9001: 4 microgram/mL
Escherichia coli; Second Agent none (Table 7B)
  MIC E. coli ATCC25922: 4 micrograms/mL
  MIC E. coli CCUG 59342: 0.5 micrograms/mL
  MIC E. coli NCTC9001: 8 micrograms/mL
Escherichia coli; Second Agent none (Table 7C)
  MIC E. coli NCTC9001: 4 micrograms/mL
Escherichia coli; Second Agent none (Table 7E)
  MIC E. coli ATCC25922: 8 micrograms/mL
  MIC E. coli NCTC 13441: 8 micrograms/mL
Escherichia coli; Table 7F, E. coli ATCC25922, second agent none
  MIC E. coli ATCC25922: 8 micrograms/mL
Escherichia coli; Table 7F, E. coli NCTC 13441, second agent none
  MIC E. coli NCTC 13441: 8 micrograms/mL
Escherichia coli; Table 7G, E. coli ATCC25922, second agent none
  MIC E. coli ATCC25922: 8 micrograms/mL
Escherichia coli; Table 7H, E. coli ATCC25922, second agent none
  MIC E. coli ATCC25922: 8 micrograms/mL
Escherichia coli; Table 7H, E. coli NCTC 13441, second agent none
  MIC E. coli NCTC 13441: 8 micrograms/mL
Escherichia coli; Table 7I, E. coli ATCC25922, second agent none
  MIC E. coli ATCC25922: 8 micrograms/mL
Escherichia coli; in the absence of Rifampicin, strain ATCC25922
  MIC E. coli ATCC25922: 2 micrograms/mL
Escherichia coli; in the absence of Rifampicin, strain NCTC9001
  MIC E. coli NCTC9001: 4 micrograms/mL
Pseudomonas aeruginosa; P. aeruginosa CCUG 59626, second agent none
  MIC P. aeruginosa CCUG 59626: 0.25 micrograms/mL
Pseudomonas aeruginosa; [2]
  MIC P. aeruginosa ATCC 27853: 0.25 micrograms/mL
  MIC P. aeruginosa CCUG 59626: 0.25 micrograms/mL
Pseudomonas aeruginosa; Second Agent none (Table 7C)
  MIC P. aeruginosa CCUG 59626: 0.25 micrograms/mL
Pseudomonas aeruginosa; Second Agent none (Table 7E)
  MIC P. aeruginosa ATCC 10145: 0.25 micrograms/mL
Pseudomonas aeruginosa; Table 7F, P. aeruginosa ATCC 10145, second agent none
  MIC P. aeruginosa ATCC 10145: 0.25 micrograms/mL
Pseudomonas aeruginosa; Table 7H, P. aeruginosa ATCC 10145, second agent none
  MIC P. aeruginosa ATCC 10145: 0.25 micrograms/mL
Pseudomonas aeruginosa; in the absence of Rifampicin, strain ATCC27853
  MIC P. aeruginosa ATCC 27853: 0.5 micrograms/mL
Pseudomonas aeruginosa; in the absence of Rifampicin, strain ATCC-47
  MIC P. aeruginosa ATCC-47: 1 micrograms/mL
Pseudomonas aeruginosa; in the absence of Rifampicin, strain ATCCCRM-9027
  MIC P. aeruginosa ATCCCRM-9027: 0.25 micrograms/mL
Pseudomonas aeruginosa; in the absence of Rifampicin, strain CCUG 59626
  MIC P. aeruginosa CCUG 59626: 0.25 micrograms/mL
Acinetobacter baumannii; [2]
  MIC A. baumannii NCTC 13424: 2 micrograms/mL
Acinetobacter baumannii; Second Agent none (Table 7E)
  MIC A. baumannii NCTC 13424: 0.5 micrograms/mL
Acinetobacter baumannii; Table 7F, A. baumannii NCTC 13424, second agent none
  MIC A. baumannii NCTC 13424: 0.5 micrograms/mL
Acinetobacter baumannii; Table 7H, A. baumannii NCTC 13424, second agent none
  MIC A. baumannii NCTC 13424: 0.5 micrograms/mL
Acinetobacter baumannii; in the absence of Rifampicin, strain ATCC13424
  MIC A. baumannii ATCC13424: 1 micrograms/mL
Acinetobacter baumannii; in the absence of Rifampicin, strain ATCCBAA-747
  MIC A. baumannii ATCCBAA-747: 0.5 micrograms/mL
Acinetobacter baumannii; in the absence of Rifampicin, strain CCUG 57249
  MIC A. baumannii CCUG57249: 0.5 micrograms/mL
Acinetobacter baumannii; in the absence of Rifampicin, strain NCTC13423
  MIC A. baumannii NCTC 13423: 0.125 micrograms/mL
Klebsiella pneumoniae; K. pneumoniae ATCC BAA-1706, second agent none
  MIC K. pneumoniae ATCC BAA-1706: 0.5 micrograms/mL
Klebsiella pneumoniae; K. pneumoniae CCUG 59348, second agent none
  MIC K. pneumoniae CCUG 59348: >32 micrograms/mL
Klebsiella pneumoniae; K. pneumoniae NCTC 13442, second agent none
  MIC K. pneumoniae NCTC 13442: >32 micrograms/mL
Klebsiella pneumoniae; Second Agent none (Table 7A)
  MIC K. pneumoniae CCUG 59348: >32 microgram/mL
  MIC K. pneumoniae CCUG 59626: 0.25 microgram/mL
  MIC K. pneumoniae NCTC 13442: >32 microgram/mL
Klebsiella pneumoniae; Second Agent none (Table 7B)
  MIC K. pneumoniae CCUG 59348: >32 micrograms/mL
  MIC K. pneumoniae NCTC 13442: >32 micrograms/mL
Klebsiella pneumoniae; [2]
  MIC K. pneumoniae ATCC 4352: 0.5 micrograms/mL
  MIC K. pneumoniae ATCC BAA-1706: 0.5 micrograms/mL
Klebsiella pneumoniae; Second Agent none (Table 7C)
  MIC K. pneumoniae CCUG 59348: >32 micrograms/mL
  MIC K. pneumoniae NCTC 13442: >32 micrograms/mL
Klebsiella pneumoniae; Second Agent none (Table 7E)
  MIC K. pneumoniae ATCC 4352: 1 micrograms/mL
  MIC K. pneumoniae CCUG 59349: 8 micrograms/mL
Klebsiella pneumoniae; Table 7F, K. pneumoniae ATCC4352, second agent none
  MIC K. pneumoniae ATCC 4352: 1 micrograms/mL
Klebsiella pneumoniae; Table 7F, K. pneumoniae CCUG 59349, second agent none
  MIC K. pneumoniae CCUG 59349: 8 micrograms/mL
Klebsiella pneumoniae; Table 7G, K. pneumoniae ATCC4352, second agent none
  MIC K. pneumoniae ATCC 4352: 1 micrograms/mL
Klebsiella pneumoniae; Table 7H, K. pneumoniae ATCC4352, second agent none
  MIC K. pneumoniae ATCC 4352: 1 micrograms/mL
Klebsiella pneumoniae; Table 7H, K. pneumoniae CCUG 59349, second agent none
  MIC K. pneumoniae CCUG 59349: 8 micrograms/mL
Klebsiella pneumoniae; Table 7I, K. pneumoniae ATCC4352, second agent none
  MIC K. pneumoniae ATCC 4352: 1 micrograms/mL
Klebsiella pneumoniae; in the absence of Rifampicin, strain ATCC 4352
  MIC K. pneumoniae ATCC 4352: 1 micrograms/mL
Klebsiella pneumoniae; in the absence of Rifampicin, strain ATCC-BAA2146
  MIC K. pneumoniae ATCC-BAA2146: 32 micrograms/mL
Klebsiella pneumoniae; in the absence of Rifampicin, strain CCUG-59348
  MIC K. pneumoniae CCUG-59348: >32 micrograms/mL
Klebsiella pneumoniae; in the absence of Rifampicin, strain NCTC-13438
  MIC K. pneumoniae NCTC-13438: >32 micrograms/mL
[1]
  reduction in bacterial counts: over 3 log10
